Results from ChEMBL document CHEMBL1201862, “PubChem BioAssay data set” (2004).
Calls of active or inactive are those of the source.

Experiments:
[1] = A Cell Based Secondary Assay To Explore Cytotoxicity of Compounds that Sensitize Mycobacterium Tuberculosis to Beta-Lactam Antibiotics.; assay type: functional
Aminopeptidase N = target: T1, Aminopeptidase N (Plasmodium falciparum FcB1/Columbia, UniProt O96935); test: P. falciparum M1AAP inhibitors, biochemical, fluorogenic H-Leu-NHMec substrate, 1536-well (AID 1445); set-up: species or system Plasmodium falciparum 3D7, 3D7
T1 sequence (O96935 whole entry): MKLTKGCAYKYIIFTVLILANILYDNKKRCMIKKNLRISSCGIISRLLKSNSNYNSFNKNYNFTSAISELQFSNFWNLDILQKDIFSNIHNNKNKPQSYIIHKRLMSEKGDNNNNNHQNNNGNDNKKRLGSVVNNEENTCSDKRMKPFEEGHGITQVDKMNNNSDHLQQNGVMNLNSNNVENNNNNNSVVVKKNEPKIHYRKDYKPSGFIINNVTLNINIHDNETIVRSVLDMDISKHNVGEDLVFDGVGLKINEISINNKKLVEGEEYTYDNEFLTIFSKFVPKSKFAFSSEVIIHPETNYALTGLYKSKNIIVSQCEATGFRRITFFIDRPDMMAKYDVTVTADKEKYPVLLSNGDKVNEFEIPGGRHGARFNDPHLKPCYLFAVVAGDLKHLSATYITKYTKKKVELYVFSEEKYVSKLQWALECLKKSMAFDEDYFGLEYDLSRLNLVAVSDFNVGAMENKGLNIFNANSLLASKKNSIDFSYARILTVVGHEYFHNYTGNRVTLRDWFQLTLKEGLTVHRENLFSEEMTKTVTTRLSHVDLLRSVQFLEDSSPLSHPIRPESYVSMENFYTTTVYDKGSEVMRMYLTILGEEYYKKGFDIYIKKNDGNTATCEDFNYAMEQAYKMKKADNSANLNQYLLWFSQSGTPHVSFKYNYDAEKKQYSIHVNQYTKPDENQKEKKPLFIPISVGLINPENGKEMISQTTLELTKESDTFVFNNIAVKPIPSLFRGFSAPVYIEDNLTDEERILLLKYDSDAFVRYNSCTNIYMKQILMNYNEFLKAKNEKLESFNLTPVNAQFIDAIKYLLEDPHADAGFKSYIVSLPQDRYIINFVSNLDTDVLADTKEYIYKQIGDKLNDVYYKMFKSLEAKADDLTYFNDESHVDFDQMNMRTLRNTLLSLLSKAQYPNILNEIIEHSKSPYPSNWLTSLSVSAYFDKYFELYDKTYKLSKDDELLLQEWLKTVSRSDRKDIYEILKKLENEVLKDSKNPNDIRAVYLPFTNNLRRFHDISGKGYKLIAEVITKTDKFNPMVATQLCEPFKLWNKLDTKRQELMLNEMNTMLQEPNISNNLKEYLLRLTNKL

[2] = target: T2, Acyl-homoserine lactone acylase PvdQ (Pseudomonas aeruginosa (strain LESB58), UniProt Q9I194); test: P. aeruginosa PvdQ acylase inhibitors, dose response, biochemical, fluorescence, plate reader and imaging, cherry-picks (AID 493231)
T2 sequence (Q9I194 whole entry): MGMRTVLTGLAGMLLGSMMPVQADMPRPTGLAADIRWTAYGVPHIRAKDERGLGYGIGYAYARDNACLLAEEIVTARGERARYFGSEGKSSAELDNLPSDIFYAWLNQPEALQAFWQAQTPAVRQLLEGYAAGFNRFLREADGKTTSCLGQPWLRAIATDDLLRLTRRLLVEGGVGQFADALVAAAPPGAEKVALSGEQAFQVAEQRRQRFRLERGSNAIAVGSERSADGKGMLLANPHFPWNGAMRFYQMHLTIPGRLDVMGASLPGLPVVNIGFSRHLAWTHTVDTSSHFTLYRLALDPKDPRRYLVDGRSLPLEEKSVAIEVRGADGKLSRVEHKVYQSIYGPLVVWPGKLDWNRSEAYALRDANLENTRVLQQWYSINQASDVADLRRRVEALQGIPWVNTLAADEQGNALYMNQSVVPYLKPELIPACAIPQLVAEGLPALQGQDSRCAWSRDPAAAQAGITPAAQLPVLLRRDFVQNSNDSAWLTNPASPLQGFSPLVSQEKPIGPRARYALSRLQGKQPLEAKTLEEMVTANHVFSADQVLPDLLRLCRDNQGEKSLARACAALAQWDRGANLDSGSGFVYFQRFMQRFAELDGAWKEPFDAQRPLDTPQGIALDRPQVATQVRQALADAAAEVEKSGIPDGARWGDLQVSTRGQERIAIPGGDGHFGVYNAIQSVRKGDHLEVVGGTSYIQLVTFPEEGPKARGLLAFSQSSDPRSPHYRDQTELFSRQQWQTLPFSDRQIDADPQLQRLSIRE

Leucine aminopeptidase = target: T3, Leucine aminopeptidase (Plasmodium falciparum 3D7, UniProt Q8IL11); test: P. falciparum M17LAP inhibitors, primary screen, biochemical, fluorogenic H-Leu-NHMec substrate, 1536-well (AID 1619); assay type: functional
T3 sequence (Q8IL11 whole entry): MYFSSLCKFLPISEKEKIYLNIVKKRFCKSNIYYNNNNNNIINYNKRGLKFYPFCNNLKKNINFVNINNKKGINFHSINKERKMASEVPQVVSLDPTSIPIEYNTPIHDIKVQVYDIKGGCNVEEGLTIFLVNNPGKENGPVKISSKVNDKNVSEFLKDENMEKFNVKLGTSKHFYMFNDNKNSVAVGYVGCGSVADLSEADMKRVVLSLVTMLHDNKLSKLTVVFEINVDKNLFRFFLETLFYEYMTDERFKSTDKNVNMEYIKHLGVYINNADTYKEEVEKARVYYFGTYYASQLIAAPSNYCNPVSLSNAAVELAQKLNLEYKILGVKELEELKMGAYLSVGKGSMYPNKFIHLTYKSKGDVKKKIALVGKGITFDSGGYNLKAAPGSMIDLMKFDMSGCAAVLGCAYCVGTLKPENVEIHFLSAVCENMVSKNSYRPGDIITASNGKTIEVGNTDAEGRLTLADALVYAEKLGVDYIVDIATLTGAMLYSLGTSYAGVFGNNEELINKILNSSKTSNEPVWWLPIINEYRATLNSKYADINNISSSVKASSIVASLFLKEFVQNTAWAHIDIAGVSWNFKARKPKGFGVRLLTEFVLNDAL

Large T antigen = Large T antigen (Simian virus 40, UniProt P03070); assay type: functional, Betapolyomavirus macacae;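 note: Confirmatory-stage PubChem screen for compounds that inhibit SV40 T antigen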
[3] = target: T4, Rac GTPase-activating protein 1 (Homo sapiens, UniProt Q9H0H5); test: MgcRacGAP GTPase-activating activity inhibitors, confirmation, biochemical, ADP Hunter fluorescence, primary and confirmatory (AID 624330); assay type: functional
T4 sequence (Q9H0H5 whole entry): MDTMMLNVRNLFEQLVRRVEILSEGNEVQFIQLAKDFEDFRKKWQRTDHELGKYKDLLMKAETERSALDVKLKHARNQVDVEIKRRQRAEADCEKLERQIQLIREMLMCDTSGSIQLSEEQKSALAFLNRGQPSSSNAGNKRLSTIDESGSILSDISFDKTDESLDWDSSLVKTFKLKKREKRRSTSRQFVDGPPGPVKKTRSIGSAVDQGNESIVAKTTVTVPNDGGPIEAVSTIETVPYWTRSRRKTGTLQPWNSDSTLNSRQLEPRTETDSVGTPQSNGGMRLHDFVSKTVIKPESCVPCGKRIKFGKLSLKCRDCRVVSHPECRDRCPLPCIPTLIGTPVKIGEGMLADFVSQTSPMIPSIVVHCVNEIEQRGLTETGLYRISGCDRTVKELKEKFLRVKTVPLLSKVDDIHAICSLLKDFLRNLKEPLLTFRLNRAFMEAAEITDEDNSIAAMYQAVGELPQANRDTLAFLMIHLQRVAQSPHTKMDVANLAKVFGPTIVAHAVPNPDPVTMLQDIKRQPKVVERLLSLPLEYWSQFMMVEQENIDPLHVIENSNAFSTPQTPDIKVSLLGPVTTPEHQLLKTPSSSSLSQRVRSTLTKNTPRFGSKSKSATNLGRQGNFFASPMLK

[4] = insulin promoter down-regulators in MIN6 cells, imaging, high-content screening, mouse beta cells (AID 1628); assay type: functional
[5] = cytotoxicity in MIN6 insulinoma cells, dose response, cytotoxicity control, cell-based, mouse insulinoma (AID 2122); assay type: functional;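 note: confirmatory high-throughput counterscreen run to flag cytotoxic compounds; mouse MIN-6 beta cells carrying an insulin promoter eGFP reporter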
ORF 73 = target: T5, ORF 73 (Human herpesvirus 8, UniProt O40947); test: inhibitors of C-LANA binding to LBS DNA, dose response, biochemical, fluorescence polarization, cherry-picked samples (AID 504725); set-up: species or system Human gammaherpesvirus 8;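 note: fluorescence polarization of a labeled DNA duplex reporting LANA DNA binding; potency is for inhibitors that block LANA binding to the DNA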
T5 sequence (O40947 whole entry): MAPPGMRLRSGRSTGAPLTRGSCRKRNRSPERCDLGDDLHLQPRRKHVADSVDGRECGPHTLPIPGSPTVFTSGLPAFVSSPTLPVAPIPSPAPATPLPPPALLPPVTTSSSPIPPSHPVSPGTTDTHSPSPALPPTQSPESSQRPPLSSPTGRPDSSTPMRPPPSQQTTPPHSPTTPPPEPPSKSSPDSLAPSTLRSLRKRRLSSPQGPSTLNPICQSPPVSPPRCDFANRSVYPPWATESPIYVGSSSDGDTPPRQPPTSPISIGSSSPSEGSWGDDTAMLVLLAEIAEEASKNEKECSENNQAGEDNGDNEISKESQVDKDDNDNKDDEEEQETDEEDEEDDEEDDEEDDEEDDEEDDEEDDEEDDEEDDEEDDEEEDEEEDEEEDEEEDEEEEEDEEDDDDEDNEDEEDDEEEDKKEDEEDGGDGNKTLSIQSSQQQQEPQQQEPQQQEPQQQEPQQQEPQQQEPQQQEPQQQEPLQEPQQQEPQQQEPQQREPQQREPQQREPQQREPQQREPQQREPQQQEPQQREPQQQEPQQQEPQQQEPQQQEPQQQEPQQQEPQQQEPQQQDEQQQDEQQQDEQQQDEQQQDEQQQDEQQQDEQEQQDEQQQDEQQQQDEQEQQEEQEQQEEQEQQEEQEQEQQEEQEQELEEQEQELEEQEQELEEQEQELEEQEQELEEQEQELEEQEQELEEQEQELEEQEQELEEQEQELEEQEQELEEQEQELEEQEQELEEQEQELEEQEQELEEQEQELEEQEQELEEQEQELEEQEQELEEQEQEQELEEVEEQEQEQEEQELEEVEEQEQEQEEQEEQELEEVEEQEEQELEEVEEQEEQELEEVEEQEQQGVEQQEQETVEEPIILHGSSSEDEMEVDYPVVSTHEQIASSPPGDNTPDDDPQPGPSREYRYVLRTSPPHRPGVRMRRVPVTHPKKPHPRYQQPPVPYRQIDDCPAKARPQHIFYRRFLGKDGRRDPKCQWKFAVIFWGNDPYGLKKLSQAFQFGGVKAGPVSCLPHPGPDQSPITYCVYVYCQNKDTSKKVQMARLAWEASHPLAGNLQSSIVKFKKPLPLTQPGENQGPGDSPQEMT

[6] = inhibitors of intracellular T. cruzi replication, confirmation, NIH3T3 host cells, beta-gal luminescence (AID 2044); assay type: functional, cell-based;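 note: intracellular parasites grown in NIH/3T3 mouse fibroblasts as host cells; luminescent beta-galactosidase reporter signal from transgenic T. cruzi replicating inside host cells; inhibitors lower the luminescence signal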
[7] = cytotoxicity toward NIH3T3 fibroblasts, dose response, counter-screen, cell-based, ATP luminescence, mouse fibroblasts (AID 2010); assay type: functional;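 note: cells exposed to compound for about 90 hours before reading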
HEK293 = test: inhibitors of LMP1-driven NF-kB reporter, dose response, cell-based, HEK293, luciferase, cherry-pick (AID 588343); assay type: functional; settings: Homo sapiens

Sequence of Large T antigen (P03070 whole entry): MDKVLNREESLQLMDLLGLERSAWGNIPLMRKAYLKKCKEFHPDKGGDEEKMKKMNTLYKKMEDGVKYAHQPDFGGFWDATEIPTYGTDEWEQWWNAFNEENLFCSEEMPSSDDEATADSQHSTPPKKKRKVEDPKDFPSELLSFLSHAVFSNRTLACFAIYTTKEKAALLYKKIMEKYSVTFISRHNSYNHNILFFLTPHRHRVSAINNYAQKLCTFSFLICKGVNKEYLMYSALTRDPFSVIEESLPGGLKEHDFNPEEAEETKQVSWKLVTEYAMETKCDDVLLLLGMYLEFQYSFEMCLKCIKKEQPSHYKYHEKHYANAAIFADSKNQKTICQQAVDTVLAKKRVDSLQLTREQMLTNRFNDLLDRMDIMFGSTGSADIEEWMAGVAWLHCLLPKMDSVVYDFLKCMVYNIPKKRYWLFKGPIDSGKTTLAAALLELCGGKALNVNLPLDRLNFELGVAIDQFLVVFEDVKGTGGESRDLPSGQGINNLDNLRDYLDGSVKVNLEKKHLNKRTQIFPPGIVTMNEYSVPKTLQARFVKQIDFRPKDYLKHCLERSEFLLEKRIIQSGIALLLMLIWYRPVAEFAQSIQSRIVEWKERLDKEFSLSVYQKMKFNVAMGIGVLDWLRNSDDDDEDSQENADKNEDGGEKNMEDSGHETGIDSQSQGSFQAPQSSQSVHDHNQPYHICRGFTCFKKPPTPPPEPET

## COCc1cc(O)n2ncc(-c3ccccc3)c2n1
[1]
  CC50: > 40 µM (active)

## Cn1nc(-c2ccc(OCC(=O)NCC3CCCO3)cc2)c2ccccc2c1=O (stereo not drawn)
[1]
  CC50: > 40 µM (active)

## COc1ccc(Cn2c(C)nc3c(c(=O)c4ccccc4n3C)c2=O)cc1
[1]
  CC50: > 40 µM (active)

## CCOC(=O)N1CCN(C(=O)c2ccc3c(c2)sc2nc(-c4ccccc4)cn23)CC1
Aminopeptidase N
  IC50: 73.4 µM (active)

## O=C(/C=C/c1ccc2c(c1)OCCO2)c1ccccc1
[2]
  AC50: 29.3 µM (active)

## C=CCOC(=O)c1ccc(-n2cnc(C)n2)nc1
[2]
  AC50: 4.58 µM (active)

## COc1ccc2c(c1)c(C(=O)N/N=C/c1ccc(O)c(O)c1)c(C)n2C
Leucine aminopeptidase
  IC50: 29.7 µM (active)
Large T antigen
  IC50: 16.7 µM (active)
[3]
  IC50: 23.5 µM (active)

## Cc1cccc(NC(S)=NC(C)(C)CC(C)(C)C)c1
[4]
  IC50: 1.92 µM (active)
[5]
  IC50: 1.87 µM (active)

## O=C(/C=C/c1cccc([N+](=O)[O-])c1)N1CCN(Cc2ccc3c(c2)OCO3)CC1
Aminopeptidase N
  IC50: 108 µM (active)

## COc1ccc(NC(=S)N(CCCN2CCCC2)Cc2cccn2Cc2ccc(Cl)cc2)cc1Cl
[4]
  IC50: 2.89 µM (active)
[5]
  IC50: 3.27 µM (active)

## O=[N+]([O-])c1ccc(-c2cccnc2)cc1
[2]
  AC50: 13.1 µM (active)

## Cc1ccc(NC(=O)Nc2cccs2)nc1
Aminopeptidase N
  IC50: 26.4 µM (active)

## COCCN(CCOC)Cc1c(O)ccc2c1O/C(=C\c1ccco1)C2=O
ORF 73
  AC50: 11.9 µM (active)

## CCOc1ccc(Nc2ncnc3ccc([N+](=O)[O-])cc23)cc1
[6]
  EC50: 2.22 µM (active)
[7]
  EC50: > 60 µM (not active)
[2]
  AC50: 30.8 µM (active)
HEK293
  AC50: 8.95 µM (active)

## C/C(=N\Nc1cc(N2CCOCC2)nc(C)n1)c1cccc([N+](=O)[O-])c1
[4]
  IC50: 1.98 µM (active)
[5]
  IC50: 3.14 µM (active)
